Reference: US7879808B2, “Lincomycin derivatives and antimicrobial agents comprising the same as active ingredient” (Meiji Seika Kaisha, Ltd., priority 2007, dated 2011)
In brackets after ≈: the same amount, converted by molar mass.

Legend:
Format in all cases: cell-based
[1] = test system: S. pneumoniae MSC07571; assay: MIC against S. pneumoniae MSC07571 (CLSI M7-A7 agar method); details: Sensitivity disk agar-N+5% horse aseptic defibranated blood, about 10^4 CFU/ml; for MIC: Streptococcus pneumoniae, read-out: minimal inhibitory concentration (MIC)
Method: (§1) For representative compounds among lincomycin derivatives according to the present invention, the minimal inhibitory concentration (MIC, […]) against various pneumococci was measured according to the method described in Clinical and Laboratory Standards Institute, M7-A7, 2006. Sensitivity disk agar-N+5% horse aseptic defibranated blood was used as the medium for the measurement. The amount of bacteria inoculated was about 10^4 CFU/ml.

[2] = test system: S. pneumoniae MSC07365; assay: MIC against S. pneumoniae MSC07365 (CLSI M7-A7 agar method); set-up: unit not given here; details: Sensitivity disk agar-N+5% horse aseptic defibranated blood, about 10^4 CFU/ml
Method: as §1

[3] = test system: S. pneumoniae MSC07465; assay: MIC against S. pneumoniae MSC07465 (CLSI M7-A7 agar method); set-up: unit not given here; details: Sensitivity disk agar-N+5% horse aseptic defibranated blood, about 10^4 CFU/ml
Method: as §1

[4] = test system: S. pneumoniae MSC07471; assay: MIC against S. pneumoniae MSC07471 (CLSI M7-A7 agar method); set-up: unit not given here; details: Sensitivity disk agar-N+5% horse aseptic defibranated blood, about 10^4 CFU/ml
Method: as §1

[5] = test system: S. pneumoniae MSC17994; assay: MIC against S. pneumoniae MSC17994 (CLSI M7-A7 agar method); set-up: unit not given here; details: Sensitivity disk agar-N+5% horse aseptic defibranated blood, about 10^4 CFU/ml
Method: as §1

[6] = test system: S. pneumoniae MSC07337; assay: MIC against S. pneumoniae MSC07337 (CLSI M7-A7 agar method); set-up: unit not given here; details: Sensitivity disk agar-N+5% horse aseptic defibranated blood, about 10^4 CFU/ml
Method: as §1

[7] = test system: S. pneumoniae MSC10197; assay: MIC against S. pneumoniae MSC10197 (CLSI M7-A7 agar method); set-up: unit not given here; details: Sensitivity disk agar-N+5% horse aseptic defibranated blood, about 10^4 CFU/ml
Method: as §1

SMILES	MIC [1]	minimal inhibitory concentration (MIC) [2]	minimal inhibitory concentration (MIC) [3]	minimal inhibitory concentration (MIC) [4]	minimal inhibitory concentration (MIC) [5]	minimal inhibitory concentration (MIC) [6]	minimal inhibitory concentration (MIC) [1]	minimal inhibitory concentration (MIC) [7]
CCC[C@@H]1C[C@@H](C(=O)NC(C2OC(SC)C(O)C(O)C2O)[C@H](C)Sc2ccc(CCN(C)CCN(C)C)cc2)N(C)C1 (stereo partly shown) [Compound 10, 7-Deoxy-7-(4-(2-((2-(dimethylamino)ethyl)-(methyl)amino)ethyl)-phenylthio)-7-epilincomycin]	60 µg/mL (≈ 95.7 µM)	–	–	–	–	–	–	–
CSC1OC(C(NC(=O)[C@@H]2C[C@H](CC3CC3)CCN2C)C(C)Sc2ccc(CCN(C)C3CC3)cc2)C(O)C(O)C1O (stereo partly drawn) [Compound 54, Methyl 7-(4-(2-(cyclopropyl(methyl)-amino)ethyl)phenyl-thio)-6-N-((2S,4R)-4-(cyclopropylmethyl)-1-methylpiperidine-2-carbonyl)-7-deoxy-7-epi-1-thio-α-lincosamide]	–	4	0.015	2	0.06	2	30 µg/mL (≈ 48.2 µM)	0.03
CCC[C@@H]1C[C@@H](C(=O)NC(C2OC(SC)C(O)C(O)C2O)[C@H](C)Sc2ccc(CCN(C)C)cc2)N(C)C1 (stereo partly shown) [Compound 1, 7-Deoxy-7-(4-(2-(dimethylamino)ethyl)phenylthio)-7-epilincomycin]	15 µg/mL (≈ 26.3 µM)	–	–	–	–	–	–	–
CSC1OC(C(NC(=O)[C@@H]2C[C@H](CC3CC3)CCN2C)C(C)Sc2ccc(CCN(C)C)nc2)C(O)C(O)C1O (stereo partly drawn) [Compound 52, Methyl 6-N-((2S,4R)-(4-cyclopropylmethyl-1-methyl)piperidine-2-carbonyl)-7-deoxy-7-(6-(2-(dimethylamino)ethyl)-pyridin-3-ylthio)-7-epi-1-thio-α-lincosamide]	–	64	0.25	32	0.25	32	250 µg/mL (≈ 419 µM)	0.25
